Test results as given in patent publication US12559529B2, “NPY2 receptor agonists” (Boehringer Ingelheim International GmbH, priority 2019, dated 2026).
*1 amine or outer side, *2 acyl side, *3 side chain or, on linkers, in order; H or OH if unused. Where a SMILES comes first, the peptide text is derived from it. Side-chain parts run from the residue outwards. The star is where a group is joined. C18 diacid = O=C(O)CCCCCCCCCCCCCCCCC(=O)*; γGlu = O=C(O)[C@H](CCC(=O)[*:2])N[*:1]; Isovaleryl = CC(C)CC(=O)*; AEEA = NCCOCCOCC(=O)O

biological target: T1, Human Neuropeptide Y2 Receptor (Homo sapiens, UniProt P49146); experiment: Radioligand binding competition assay (RLB); conditions: Table 3; human 125I-PYY (1-36) 0.02 nM, Y2 receptor membranes; read-out: Ki
T1 construct: purchased CHEMICON HTS066M
T1 sequence (P49146 1-381): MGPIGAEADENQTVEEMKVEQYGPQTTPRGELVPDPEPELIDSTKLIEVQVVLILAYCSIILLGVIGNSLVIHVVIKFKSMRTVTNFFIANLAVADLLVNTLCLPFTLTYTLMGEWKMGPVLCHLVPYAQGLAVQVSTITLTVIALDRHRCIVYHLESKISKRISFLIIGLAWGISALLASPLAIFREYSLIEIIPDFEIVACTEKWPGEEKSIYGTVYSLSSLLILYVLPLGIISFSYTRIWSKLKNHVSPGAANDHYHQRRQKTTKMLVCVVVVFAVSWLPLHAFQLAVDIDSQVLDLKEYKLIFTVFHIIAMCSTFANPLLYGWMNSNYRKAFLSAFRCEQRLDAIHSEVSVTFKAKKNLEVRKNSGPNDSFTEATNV
Procedure, shortened: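 Membranes (0.5 μg/well) and test peptides, serially diluted from 1 mM DMSO stocks, were incubated 2 hours at room temperature in HEPES buffer pH 7.4 with Mg, Ca and ovalbumin.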

Ki [nM] | Structure (SMILES)
5.05 | CC(C)CC(=O)N[C@@H](C)C(=O)N1CCC[C@H]1C(=O)N[C@@H](CCC(=O)O)C(=O)N[C@@H](CCCCNC(=O)COCCOCCNC(=O)COCCOCCNC(=O)CC[C@H](NC(=O)CCCCCCCCCCCCCCCCC(=O)O)C(=O)O)C(=O)N1CCC[C@H]1C(=O)N[C@@H](CCC(=O)O)C(=O)N[C@@H](CCC(=O)O)C(=O)N[C@@H](CCC(=O)O)C(=O)N[C@@H](C)C(=O)N[C@@H](CO)C(=O)N1CCC[C@H]1C(=O)N[C@@H](CCC(=O)O)C(=O)N[C@@H](CCC(=O)O)C(=O)N[C@@H](CC(C)C)C(=O)N[C@@H](CCC(N)=O)C(=O)N[C@@H](CCCNC(=N)N)C(=O)N[C@@H](Cc1ccc(O)cc1)C(=O)N[C@@H](Cc1ccc(O)cc1)C(=O)N[C@H](C(=O)N[C@@H](CO)C(=O)N[C@H](C(=O)N[C@@H](CCCNC(=N)N)C(=O)N[C@@H](Cc1c[nH]cn1)C(=O)N[C@@H](Cc1ccc(O)cc1)C(=O)N[C@@H](Cc1ccc(O)cc1)C(=O)N[C@@H](CC(N)=O)C(=O)N[C@@H](Cc1c[nH]c2ccccc12)C(=O)N[C@@H](CC(C)C)C(=O)N[C@H](C(=O)N[C@@H](CCCNC(=N)N)C(=O)N[C@@H](CCC(N)=O)C(=O)N[C@@H](CCCNC(=N)N)C(=O)N[C@@H](Cc1ccc(O)cc1)C(N)=O)[C@@H](C)O)[C@@H](C)O)C(C)C [Compound 146, N{alpha-4}-(3-methylbutanoyl)-N{epsilon-7}-[2-(2-{2-[2-(2-{2-[(4S)-4-carboxy-4-(17-carboxyheptadecanamido)butanamido]ethoxy}ethoxy)acetamido]ethoxy}ethoxy)acetamido]-[4A,7K,9E,11E,18Q,22V,24T,28Y,30W,31L]hPYY (4-36)] (Isovaleryl-APEK([AEEA-AEEA-γGlu-C18 diacid])PEEEASPEELQRYYVSTRHYYNWLTRQRY-NH2)
1.19 | CC(C)CC(=O)N[C@@H](C)C(=O)N1CCC[C@H]1C(=O)N[C@@H](CCC(=O)O)C(=O)N[C@@H](CCCCNC(=O)COCCOCCNC(=O)COCCOCCNC(=O)CC[C@H](NC(=O)CCCCCCCCCCCCCCCCC(=O)O)C(=O)O)C(=O)N1CCC[C@H]1C(=O)N[C@@H](CCC(=O)O)C(=O)N[C@@H](CCC(=O)O)C(=O)N[C@@H](CC(=O)O)C(=O)N[C@@H](C)C(=O)N[C@@H](CO)C(=O)N1CCC[C@H]1C(=O)N[C@@H](CCC(=O)O)C(=O)N[C@@H](CCC(=O)O)C(=O)N[C@H](C(=O)N[C@@H](CCC(N)=O)C(=O)N[C@@H](CCCCN)C(=O)N[C@@H](Cc1ccc(O)cc1)C(=O)N[C@@H](Cc1ccc(O)cc1)C(=O)N[C@H](C(=O)N[C@@H](CO)C(=O)N[C@@H](CC(C)C)C(=O)N[C@@H](CCCNC(=N)N)C(=O)N[C@@H](Cc1c[nH]cn1)C(=O)N[C@@H](Cc1ccc(O)cc1)C(=O)N[C@@H](Cc1ccc(O)cc1)C(=O)N[C@@H](CC(N)=O)C(=O)N[C@@H](Cc1c[nH]c2ccccc12)C(=O)N[C@@H](CC(C)C)C(=O)N[C@H](C(=O)N[C@@H](CCCNC(=N)N)C(=O)N[C@@H](CCC(N)=O)C(=O)N[C@@H](CCCNC(=N)N)C(=O)N[C@@H](Cc1ccc(O)cc1)C(N)=O)[C@@H](C)O)C(C)C)[C@@H](C)O [Compound 147, N{alpha-4}-(3-methylbutanoyl)-N{epsilon-7}-[2-(2-{2-[2-(2-{2-[(4S)-4-carboxy-4-(17-carboxyheptadecanamido)butanamido]ethoxy}ethoxy)acetamido]ethoxy}ethoxy)acetamido]-[4A,7K,9E,17T,18Q,19K,22V,28Y,30W,31L]hPYY (4-36)]
2.75 | CC(C)CC(=O)N[C@@H](C)C(=O)N1CCC[C@H]1C(=O)N[C@@H](CCC(=O)O)C(=O)N[C@@H](CCCCNC(=O)COCCOCCNC(=O)COCCOCCNC(=O)CC[C@H](NC(=O)CCCCCCCCCCCCCCCCC(=O)O)C(=O)O)C(=O)N1CCC[C@H]1C(=O)N[C@@H](CCC(=O)O)C(=O)N[C@@H](CCC(=O)O)C(=O)N[C@@H](C)C(=O)N[C@@H](C)C(=O)N[C@@H](CO)C(=O)N1CCC[C@H]1C(=O)N[C@@H](CCC(=O)O)C(=O)N[C@@H](CCC(=O)O)C(=O)N[C@@H](CC(C)C)C(=O)N[C@@H](CCC(N)=O)C(=O)N[C@@H](CCCNC(=N)N)C(=O)N[C@@H](Cc1ccc(O)cc1)C(=O)N[C@@H](Cc1ccc(O)cc1)C(=O)N[C@H](C(=O)N[C@@H](CCC(=O)O)C(=O)N[C@@H](CC(C)C)C(=O)N[C@@H](CCCNC(=N)N)C(=O)N[C@@H](Cc1c[nH]cn1)C(=O)N[C@@H](Cc1ccc(O)cc1)C(=O)N[C@@H](Cc1ccc(O)cc1)C(=O)N[C@@H](CC(N)=O)C(=O)N[C@@H](Cc1c[nH]c2ccccc12)C(=O)N[C@@H](CC(C)C)C(=O)N[C@H](C(=O)N[C@@H](CCCNC(=N)N)C(=O)N[C@@H](CCC(N)=O)C(=O)N[C@@H](CCCNC(=N)N)C(=O)N[C@@H](Cc1ccc(O)cc1)C(N)=O)[C@@H](C)O)C(C)C [Compound 149, N{alpha-4}-(3-methylbutanoyl)-N{epsilon-7}-[2-(2-{2-[2-(2-{2-[(4S)-4-carboxy-4-(17-carboxyheptadecanamido)butanamido]ethoxy}ethoxy)acetamido]ethoxy}ethoxy)acetamido]-[4A,7K,9E,11A,18Q,22V,23E,28Y,30W,31L]hPYY (4-36)]
5.18 | CC[C@H](C)[C@H](NC(=O)[C@H](CCC(=O)O)NC(=O)[C@H](CCC(=O)O)NC(=O)[C@@H]1CCCN1C(=O)[C@H](CO)NC(=O)[C@H](C)NC(=O)[C@H](CC(=O)O)NC(=O)[C@H](CCC(=O)O)NC(=O)[C@H](CCC(=O)O)NC(=O)[C@H](C)NC(=O)[C@H](CCCCNC(=O)COCCOCCNC(=O)COCCOCCNC(=O)CC[C@H](NC(=O)CCCCCCCCCCCCCCCCC(=O)O)C(=O)O)NC(=O)[C@H](CCC(=O)O)NC(=O)[C@@H]1CCCN1C(=O)[C@H](C)NC(=O)CC(C)C)C(=O)N[C@@H](CCC(N)=O)C(=O)N[C@@H](CCCNC(=N)N)C(=O)N[C@@H](Cc1ccc(O)cc1)C(=O)N[C@@H](Cc1ccc(O)cc1)C(=O)N[C@H](C(=O)N[C@@H](CO)C(=O)N[C@@H](CC(C)C)C(=O)N[C@@H](CCCNC(=N)N)C(=O)N[C@@H](Cc1c[nH]cn1)C(=O)N[C@@H](Cc1ccc(O)cc1)C(=O)N[C@@H](Cc1ccc(O)cc1)C(=O)N[C@@H](CC(N)=O)C(=O)N[C@@H](Cc1c[nH]c2ccccc12)C(=O)N[C@@H](CC(C)C)C(=O)N[C@H](C(=O)N[C@@H](CCCNC(=N)N)C(=O)N[C@@H](CCC(N)=O)C(=O)N[C@@H](CCCNC(=N)N)C(=O)N[C@@H](Cc1ccc(O)cc1)C(N)=O)[C@@H](C)O)C(C)C [Compound 152, N{alpha-4}-(3-methylbutanoyl)-N{epsilon-7}-[2-(2-{2-[2-(2-{2-[(4S)-4-carboxy-4-(17-carboxyheptadecanamido)butanamido]ethoxy}ethoxy)acetamido]ethoxy}ethoxy)acetamido]-[4A,7K,8A,9E,17I,18Q,22V,28Y,30W,31L]hPYY (4-36)]
14.4 | CC(C)CC(=O)N[C@@H](C)C(=O)N1CCC[C@H]1C(=O)N[C@@H](CCC(=O)O)C(=O)N[C@@H](CCCCNC(=O)COCCOCCNC(=O)COCCOCCNC(=O)CC[C@H](NC(=O)CCCCCCCCCCCCCCCCC(=O)O)C(=O)O)C(=O)N[C@H](C(=O)N[C@@H](CCC(=O)O)C(=O)N[C@@H](CCC(=O)O)C(=O)N[C@@H](CCC(=O)O)C(=O)N[C@@H](C)C(=O)N[C@@H](CO)C(=O)N1CCC[C@H]1C(=O)N[C@@H](CCC(=O)O)C(=O)N[C@@H](CCC(=O)O)C(=O)N[C@@H](CC(C)C)C(=O)N[C@@H](CCC(N)=O)C(=O)N[C@@H](CCCNC(=N)N)C(=O)N[C@@H](Cc1ccc(O)cc1)C(=O)N[C@@H](Cc1ccc(O)cc1)C(=O)N[C@H](C(=O)N[C@@H](CO)C(=O)N[C@@H](CC(C)C)C(=O)N[C@@H](CCCNC(=N)N)C(=O)N[C@@H](Cc1c[nH]cn1)C(=O)N[C@@H](Cc1ccc(O)cc1)C(=O)N[C@@H](Cc1ccc(O)cc1)C(=O)N[C@@H](CC(N)=O)C(=O)N[C@@H](Cc1c[nH]c2ccccc12)C(=O)N[C@@H](CC(C)C)C(=O)N[C@H](C(=O)N[C@@H](CCCNC(=N)N)C(=O)N[C@@H](CCC(N)=O)C(=O)N[C@@H](CCCNC(=N)N)C(=O)N[C@@H](Cc1ccc(O)cc1)C(N)=O)[C@@H](C)O)C(C)C)C(C)C [Compound 153, N{alpha-4}-(3-methylbutanoyl)-N{epsilon-7}-[2-(2-{2-[2-(2-{2-[(4S)-4-carboxy-4-(17-carboxyheptadecanamido)butanamido]ethoxy}ethoxy)acetamido]ethoxy}ethoxy)acetamido]-[4A,7K,8V,9E,11E,18Q,22V,28Y,30W,31L]hPYY (4-36)] (Isovaleryl-APEK([AEEA-AEEA-γGlu-C18 diacid])VEEEASPEELQRYYVSLRHYYNWLTRQRY-NH2)
